Read-outs that look alike come from different tables or passages of the source.
Legend:
native MDH = molecular target: T1, native MDH (Sus scrofa, UniProt P00346); test: native MDH activity counter-screen in the presence of E. coli NfsB nitroreductase; type: biochemical, pig; conditions: with E. coli NfsB nitroreductase; read-out: Native MDH Activity w/NfsB IC50
T1 sequence (P00346 25-338): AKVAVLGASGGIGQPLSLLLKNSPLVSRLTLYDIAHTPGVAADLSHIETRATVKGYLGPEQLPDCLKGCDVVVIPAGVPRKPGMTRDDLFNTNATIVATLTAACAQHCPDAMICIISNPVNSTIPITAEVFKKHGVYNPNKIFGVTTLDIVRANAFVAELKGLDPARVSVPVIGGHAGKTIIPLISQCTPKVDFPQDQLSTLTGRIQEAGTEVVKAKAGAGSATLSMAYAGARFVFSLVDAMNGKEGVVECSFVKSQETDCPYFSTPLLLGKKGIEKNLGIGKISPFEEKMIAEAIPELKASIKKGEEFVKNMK
Protocol: Evaluating compounds for inhibition in the GroEL/ES-mediated dMDH refolding assay and native MDH activity counter-screen in the presence of E. coli NfsB nitroreductase. These assays were performed nearly identically to those mentioned above, but with a couple distinct modifications. […] The remainder of the assay was conducted as in our standard protocol where no NfsB nitroreductase was present. […] Results presented represent the averages of IC50 values obtained from at least four replicates in each assay.

[1] = test system: NEB 5-alpha Escherichia coli; test: bacterial proliferation assay, E. coli; type: cell-based; conditions: for EC50: read-out: Bacterial Proliferation EC50 E. coli
Protocol: (§1) All compounds were evaluated for inhibiting the proliferation of E. coli and each of the ESKAPE bacteria. Results presented represent the averages of EC50 values obtained from at least four replicates. Evaluating compounds for inhibition of bacterial cell proliferation.
(§2) Growth Media: E. coli were grown with LB medium and all ESKAPE bacteria were grown in Brain Heart Infusion (BHI) medium (Becton, Dickinson and Company), with all liquid cultures supplemented with 25 mg/L Ca^2+ and 12.5 mg/L Mg^2+ to mimic physiological free concentrations of these cations. A 10 mg/mL Ca^2+ stock solution was prepared by dissolving 1.84 g of CaCl2.2H2O in 50 mL of deionized water, and a 10 mg/mL Mg^2+ stock solution was prepared by dissolving 4.18 g of MgCl2.6H2O in 50 mL deionized water—filter sterilized using 0.2 μm cellulose-acetate filters. 2.5 mL of the sterile 10 mg/mL Ca^2+ stock and 1.25 mL of the sterile 10 mg/mL Mg^2+ stock solutions were added per 1 L of autoclaved LB or BHI media to obtain 25 mg/L Ca^2+ and 12.5 mg/L Mg^2+ ions, respectively.
(§3) General Assay Protocol: Stock bacterial cultures were streaked onto LB or BHI agar plates and grown overnight at 37° C. Fresh aliquots of cation supplemented media were inoculated with single bacterial colonies and the cultures were grown overnight at 37° C. with shaking (240 rpm). The following morning, cultures were diluted 10-fold into fresh media and grown at 37° C. until bacteria had reached mid-log phase growth (OD600˜0.4-0.6). The cultures were then diluted into fresh media to achieve final OD600 readings of 0.017. Aliquots of these diluted cultures (30 μL) were added to clear, flat-bottom 384-well polystyrene plates that were previously stamped with 0.5 μL of test compounds in 20 μL of media (yielding initial OD600=0.01 bacterial cultures). All compounds were tested in dose-response with concentration ranges during the proliferation assays from 100 μM to 46 nM (3-fold dilution series). A second set of baseline control plates were prepared analogously, but without any bacteria added, to correct for possible compound absorbance and/or precipitation. […] Plates were then read at 600 nm using a Molecular Devices SpectraMax Plus384 microplate reader. […] Results presented represent the averages of EC50 values obtained from at least four replicates.
(§4) Evaluating analogs for inhibiting the growth of E. coli and the ESKAPE bacteria. Analogs were initially tested for antibacterial efficacy against representative strains of antibiotic-sensitive E. coli and the ESKAPE bacteria. To determine compound efficacy, bacterial proliferation assays were carried out in liquid media culture supplemented with physiological concentrations of free calcium and magnesium cations. For these assays, bacterial cultures (OD600=0.01) were exposed to test compounds in 8-point, 3-fold dilution series (100 μM to 46 nM concentration range), in 384-well plates. After addition of compounds to cultures, the plates were sealed with Breathe-Easy gas permeable membranes and allowed to grow to mid-log phase (OD600˜0.4-0.6), whereupon final OD600 readings were taken to assess for bacterial growth and inhibition.

[2] = test system: Pseudomonas aeruginosa strain NCTC 10332 (ATCC #10145); test: bacterial proliferation assay, P. aeruginosa; type: cell-based; conditions: read-out: Bacterial Proliferation EC50 P. aeruginosa
Protocol: as §1, §2, §3, §4

| Compound | IC50 (native MDH) | EC50 ([1]; Escherichia coli) | EC50 [2] | EC50 [1] | inhibition of E. coli proliferation in words [1] |
| --- | --- | --- | --- | --- | --- |
| O=C(N/N=C/c1ccc(O)c2ncccc12)c1ccccc1 [Compound 5, N′-((8-hydroxyquinolin-5-yl)methylene)benzohydrazide] | > 56 µM | 63 µM | > 100 µM | – | – |
| O=Cc1ccc(O)c2ncccc12 [Compound 40, reference compound] | > 56 µM | 14 µM | > 100 µM | – | – |
| O=C(N/N=C/c1ccc([N+](=O)[O-])o1)c1cccs1 [Compound 16, N′-((5-nitrofuran-2-yl)methylene)thiophene-2-carbohydrazide] | – | – | > 100 µM | 0.42 µM | – |
| O=C(N/N=C/c1ccc(O)cc1)c1ccccc1 [Compound 36, N′-(4-hydroxybenzylidene)benzohydrazide] | > 56 µM | > 100 µM | > 100 µM | – | – |
| O=C(N/N=C/c1ccc(O)c2ncccc12)c1ccncc1 [Compound 6, N′-((8-hydroxyquinolin-5-yl)methylene)isonicotinohydrazide] | > 56 µM | 79 µM | > 100 µM | – | – |
| COc1ccc(C(=O)N/N=C/c2ccc(O)cc2)cc1 [Compound 35, N′-(4-hydroxybenzylidene)-4-methoxybenzohydrazide] | > 56 µM | > 100 µM | > 100 µM | – | – |
| O=C(N/N=C/c1cccc2ncccc12)c1ccccc1 [Compound 32, N′-(quinolin-5-ylmethylene)benzohydrazide] | > 56 µM | > 100 µM | > 100 µM | – | – |
| O=Cc1ccc([N+](=O)[O-])o1 [Compound 41, reference compound] | > 56 µM | 9.5 µM | > 100 µM | – | – |
| O=C(N/N=C/c1ccccc1)c1ccccc1 [Compound 38, N′-benzylidenebenzohydrazide] | > 56 µM | > 100 µM | > 100 µM | – | – |
| COc1ccc(C(=O)N/N=C/c2ccco2)cc1 [Compound 39, N′-(furan-2-ylmethylene)-4-methoxybenzohydrazide] | > 56 µM | > 100 µM | > 100 µM | – | – |
| CCN(CC)S(=O)(=O)c1cccc(C(=O)N/N=C/c2ccc([N+](=O)[O-])o2)c1 [Compound 25, N,N-diethyl-3-(2-((5-nitrofuran-2-yl)methylene)hydrazine-1-carbonyl)benzenesulfonamide] | > 56 µM | > 100 µM | > 100 µM | – | – |
| O=C(N/N=C/c1ccc(O)c2ncccc12)c1ccccc1Oc1ccccc1 [Compound 10, N′-((8-hydroxyquinolin-5-yl)methylene)-2-phenoxybenzohydrazide] | > 56 µM | > 100 µM | 81 µM | – | – |
| CCOc1ccc(S(=O)(=O)Nc2ccc(C(=O)N/N=C/c3ccc(O)c4ncccc34)cc2)cc1 [Compound 15, 4-ethoxy-N-(4-(2-((8-hydroxyquinolin-5-yl)methylene)hydrazine-1-carbonyl)phenyl)benzenesulfonamide] | > 56 µM | > 100 µM | > 100 µM | – | – |
| COc1ccc(C(=O)N/N=C/c2cccc3ccccc23)cc1 [Compound 33, 4-methoxy-N′-(naphthalen-1-ylmethylene)benzohydrazide] | > 56 µM | > 100 µM | > 100 µM | – | – |
| O=C(N/N=C/c1ccc(O)c2ncccc12)c1cccc2ccccc12 [Compound 9, N′-((8-hydroxyquinolin-5-yl)methylene)-1-naphthohydrazide] | > 56 µM | > 100 µM | > 100 µM | – | – |
| O=C(N/N=C/c1ccc(O)c2ncccc12)c1cccs1 [Compound 3, N′-((8-hydroxyquinolin-5-yl)methylene)thiophene-2-carbohydrazide] | > 56 µM | 77 µM | > 100 µM | – | – |
| O=C(N/N=C/c1ccc(O)c2ncccc12)c1ccc(NS(=O)(=O)c2cccs2)cc1 [Compound 13, N-(4-(2-((8-hydroxyquinolin-5-yl)methylene)hydrazine-1-carbonyl)phenyl)thiophene-2-sulfonamide] | > 56 µM | > 100 µM | > 100 µM | – | – |
| CCOc1ccc(S(=O)(=O)Nc2ccc(C(=O)N/N=C/c3ccc([N+](=O)[O-])o3)cc2)cc1 [Compound 28, 4-ethoxy-N-(4-(2-((5-nitrofuran-2-yl)methylene)hydrazine-1-carbonyl)phenyl)benzenesulfonamide] | > 56 µM | > 100 µM | > 100 µM | – | – |
| O=C(N/N=C/c1ccc([N+](=O)[O-])o1)c1cccc2ccccc12 [Compound 22, N′-((5-nitrofuran-2-yl)methylene)-1-naphthohydrazide] | > 56 µM | 41 µM | > 100 µM | – | – |
| O=C(N/N=C/c1ccc([N+](=O)[O-])o1)c1ccccc1Oc1ccccc1 [Compound 23, N′-((5-nitrofuran-2-yl)methylene)-2-phenoxybenzohydrazide] | > 56 µM | > 100 µM | > 100 µM | – | – |
| COc1ccc(C(=O)N/N=C/c2ccccc2)cc1 [Compound 37, N′-benzylidene-4-methoxybenzohydrazide] | > 56 µM | > 100 µM | > 100 µM | – | – |
| COc1ccc(C(=O)NN)cc1 [Compound 42, reference compound] | > 56 µM | > 100 µM | > 100 µM | – | – |
| O=C(N/N=C/c1ccc([N+](=O)[O-])o1)c1ccc(NS(=O)(=O)c2cccs2)cc1 [Compound 26, N-(4-(2-((5-nitrofuran-2-yl)methylene)hydrazine-1-carbonyl)phenyl)thiophene-2-sulfonamide] | > 56 µM | 17 µM | > 100 µM | – | – |
| COc1ccc(C(=O)N/N=C/c2ccc([N+](=O)[O-])o2)cc1 [Compound 20, 4-methoxy-N′-((5-nitrofuran-2-yl)methylene)benzohydrazide] | – | 1.9 µM | > 100 µM | – | – |
| O=C(N/N=C/c1ccc([N+](=O)[O-])o1)c1ccccc1 [Compound 18, N′-((5-nitrofuran-2-yl)methylene)benzohydrazide] | – | 2.1 µM | > 100 µM | – | – |
| O=C1CN(/N=C/c2ccc([N+](=O)[O-])o2)C(=O)N1 [Nitrofurantoin, reference compound] | – | 0.69 µM | > 100 µM | – | potent inhibitors |
| CN(C)c1ccc(C(=O)N/N=C/c2ccc([N+](=O)[O-])o2)cc1 [Compound 21, 4-(dimethylamino)-N′-((5-nitrofuran-2-yl)methylene)benzohydrazide] | – | 10 µM | > 100 µM | – | – |
| O=C(N/N=C/c1ccc([N+](=O)[O-])o1)c1ccc(Cl)s1 [Compound 17, 5-chloro-N′-((5-nitrofuran-2-yl)methylene)thiophene-2-carbohydrazide] | – | – | > 100 µM | 0.45 µM | potent inhibitors |
| O=C(N/N=C/c1ccc([N+](=O)[O-])o1)c1ccncc1 [Compound 19, N′-((5-nitrofuran-2-yl)methylene)isonicotinohydrazide] | – | 2.4 µM | > 100 µM | – | – |
| COc1ccc(C(=O)N/N=C/c2ccc(O)c3ncccc23)cc1 [Compound 1, N′-((8-hydroxyquinolin-5-yl)methylene)-4-methoxybenzohydrazide] | > 56 µM | > 100 µM | – | – | – |
